Values quoted from earlier work in patent US6783752B2, “Contrast agents” (Amersham Health AS, priority 1996, dated 2004).

Experiments:
[1] = in vivo
coronary blood flow = settings: in vivo

blood pool half-life [1]: 2 s
Structure (SMILES): Nc1ncnc2c1ncn2[C@@H]1O[C@H](CO)[C@@H](O)[C@H]1O [adenosine]
increase in coronary blood flow in healthy myocardial tissue (coronary blood flow): in excess of fourfold increases in coronary blood flow
